Test results taken from patent US20030083342A1, “Combination of organic compounds” (priority 2002, published 2003).
Where two headings read alike, the source gives them in different places.

Assays:
[1] = tested on: response to Ang I; assay: Response to injected Ang I in pretreated Wistar Kyoto rats; format: in vivo; details: Wistar Kyoto rats pretreated with (+)-fadrozole hydrochloride or valsartan 5 mg/kg/d; comparison of the two pretreatments
Experimental: The rats are divided into 5 groups: group 1, control (n=40); Group 2, valsartan (5 mg/kg/d; n=40); Group 3, the (+)-enantiomer of the hydrochloride of fadrozole (n=30); Group 4, a combination of the (+)-enantiomer of the hydrochloride of fadrozole and valsartan (5 mg/kg/d); n=30) and Group 5, valsartan (50 mg/kg/d; n=30). The drugs are administered in drinking fluid.

[2] = tested on: pressor effect of Ang II; details: Ang II at 1 mg/kg, normotensive rats, cited from earlier work

Cl.N#Cc1ccc([C@H]2CCCc3cncn32)cc1 [(+)-enantiomer of the hydrochloride of fadrozole]
response to Ang I injected [1]: similar

CCCCC(=O)N(Cc1ccc(-c2ccccc2-c2nnn[nH]2)cc1)[C@H](C(=O)O)C(C)C [valsartan, (S)-N-(1-carboxy-2-methylprop-1-yl)-N-pentanoyl-N-[2′(1H-tetrazol-5-yl)biphenyl-4-yl-methyl]amine]
response to Ang I injected [1]: similar
reduction of the pressor effect of Ang II ([2]; valsartan 5 mg/kg/d): 49%
reduction of the pressor effect of Ang II ([2]; valsartan 50 mg/kg/d): 73%
